Where a SMILES comes first, the peptide text is derived from it. [ ]: non-standard residue; d: D form. The star is where a group is joined. 2Nal = N[C@@H](Cc1ccc2ccccc2c1)C(=O)O; Palmitoyl = CCCCCCCCCCCCCCCC(=O)*; Cit = NC(=O)NCCC[C@H](N)C(=O)O; Nle = CCCC[C@H](N)C(=O)O

T1 sequence (P61073 whole entry): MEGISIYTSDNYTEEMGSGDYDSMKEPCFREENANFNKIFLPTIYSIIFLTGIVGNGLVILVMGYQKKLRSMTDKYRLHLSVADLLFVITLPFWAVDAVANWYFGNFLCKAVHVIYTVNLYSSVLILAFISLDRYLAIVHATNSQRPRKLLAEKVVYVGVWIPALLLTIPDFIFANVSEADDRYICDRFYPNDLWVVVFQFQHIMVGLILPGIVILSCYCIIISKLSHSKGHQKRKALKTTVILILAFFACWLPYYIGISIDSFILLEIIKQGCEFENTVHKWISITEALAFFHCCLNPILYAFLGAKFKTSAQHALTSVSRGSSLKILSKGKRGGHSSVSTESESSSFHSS

This assay concerns the target T1, CXCR4 (Homo sapiens, UniProt P61073).
T1 construct: CCRF-CEM cells, a human T-cell ALL line that endogenously expresses CXCR4; endogenous in cells; host or cells: CCRF-CEM (human T-cell acute lymphoblastic leukemia line)
As to the kind of experiment: Calcium flux assay, agonist mode, Flexstation (CCRF-CEM cells). It is filed as cell-based. The note with it: CCRF-CEM, percent of maximum response compared with SDF-1α, read-out: % Intrinsic Activity. The source says: Calcium Flux Assay is one of the most popular cell-based GPCR functional assays. It most often uses calcium sensing fluorescent dyes such as fura2 AM, fluo-4 and Calcium-4 to measure changes in intracellular calcium concentration. It is used mainly to detect GPCR signaling via Gαq subunit. Activation of these Gq-coupled GPCRs leads to activation of phospholipase C, which subsequently leads to increase in inositol phosphate production. IP3 receptors on endoplasmic reticulum sense the change then release calcium into cytoplasm. Intracellular calcium binding to the fluorescent dyes can be detected by instruments that quantify fluorescent intensities, such as FLIPR Tetra, Flexstation (MDS) and FDSS (Hamamatsu). In addition, to assess Gq-couple receptor signaling, a calcium flux assay can also be used to study Gs and Gi couple receptors by co-expressing CNG (cyclic nucleotide gated calcium channel) or chimeric G-proteins (Gqi5, Gsi5 for example). Activation of some Gi-coupled receptors can also be detected by calcium flux assay via Gβγ mediated phospholipase C activation.
The calcium flux assay was used to assess the test compounds' ability to activate the CXCR4 receptor in CCRF-CEM cells (human T lymphoblasts from acute lymphoblastic leukemia). […] After dye loading by incubating with Calcium-4 dye at 37° C. for 1 hour, cell plates were read at 37° C. using the using the Flexstation 3 workstation. Receptor activation was assessed by measuring changes in fluorescent intensity after the addition of the test compounds or the reference agonist SDF-1α on the using the Flexstation 3 workstation. EC50
and percent intrinsic actively were derived from the data collected. Intrinsic activity refers to the efficacy of the test compound and is calculated as the percent of maximum response compared with the response of the reference standard (i.e., natural agonist, SDF-1α).
In general terms: A change in cytosolic calcium serves as a functional read-out for many receptors and channels.
As for `CCCCCCCCCCCCCCCC(=O)N[C@@H](CCSC)C(=O)NCC(=O)N[C@@H](Cc1ccc(O)cc1)C(=O)N[C@@H](CCC(N)=O)C(=O)N[C@@H](CCCCN)C(=O)N1CCC[C@H]1C(=O)N[C@@H](CC(C)C)C(=O)N[C@@H](CCCNC(=N)N)C(=O)N[C@@H](CO)C(=O)N[C@@H](CCSC)C(=O)N[C@H](C(=O)N[C@@H](CC(=O)O)C(=O)N[C@@H](CCCCN)C(=O)N[C@@H](Cc1ccc(O)cc1)C(=O)N[C@@H](CCCNC(=N)N)C(=O)N[C@@H](CC(C)C)C(N)=O)[C@@H](C)O` [Compound 6] (Palmitoyl-MGYQKPLRSMTDKYRL-NH2; C-terminus assumed), the Emax came to 90.2%. The figure for `CCCCCCCCCCCCCCCC(=O)N[C@@H](CCSC)C(=O)NCC(=O)N[C@@H](Cc1ccc(O)cc1)C(=O)N[C@@H](CCC(N)=O)C(=O)N[C@@H](CCCCN)C(=O)N[C@@H](CCCCN)C(=O)N[C@@H](CC(C)C)C(=O)N1CCC[C@H]1C(=O)N[C@@H](CCCNC(=N)N)C(=O)N[C@@H](CO)C(=O)N[C@@H](CCSC)C(=O)N[C@H](C(=O)N[C@@H](CC(=O)O)C(=O)N[C@@H](CCCCN)C(=O)N[C@@H](Cc1ccc(O)cc1)C(=O)N[C@@H](CCCNC(=N)N)C(=O)N[C@@H](CC(C)C)C(N)=O)[C@@H](C)O` [Compound 7] (Palmitoyl-MGYQKKLPRSMTDKYRL-NH2; C-terminus assumed) is 100%. The result for `CCCCCCCCCCCCCCCC(=O)N[C@@H](CCSC)C(=O)NCC(=O)N[C@@H](Cc1ccc(O)cc1)C(=O)N[C@@H](CCC(N)=O)C(=O)N[C@@H](CCCCN)C(=O)N[C@@H](CCCCN)C(=O)N[C@@H](CC(C)C)C(=O)N[C@@H](CCCNC(=N)N)C(=O)N1CCC[C@H]1C(=O)N[C@@H](CO)C(=O)N[C@@H](CCSC)C(=O)N[C@H](C(=O)N[C@@H](CC(=O)O)C(=O)N[C@@H](CCCCN)C(=O)N[C@@H](Cc1ccc(O)cc1)C(=O)N[C@@H](CCCNC(=N)N)C(=O)N[C@@H](CC(C)C)C(N)=O)[C@@H](C)O` [Compound 8] (Palmitoyl-MGYQKKLRPSMTDKYRL-NH2; C-terminus assumed) reads 88%. The figure for `CCCCCCCCCCCCCCCC(=O)N[C@@H](CCSC)C(=O)NCC(=O)N[C@@H](Cc1ccc(O)cc1)C(=O)N[C@@H](CCC(N)=O)C(=O)N[C@@H](CCCCN)C(=O)N[C@@H](CCCCN)C(=O)N[C@@H](CC(C)C)C(=O)N[C@@H](CCCNC(=N)N)C(=O)N[C@@H](CO)C(=O)N1CCC[C@@H]1C(=O)N[C@@H](CCSC)C(=O)N[C@H](C(=O)N[C@@H](CC(=O)O)C(=O)N[C@@H](CCCCN)C(=O)N[C@@H](Cc1ccc(O)cc1)C(=O)N[C@@H](CCCNC(=N)N)C(=O)N[C@@H](CC(C)C)C(N)=O)[C@@H](C)O` [Compound 9] (Palmitoyl-MGYQKKLRS[dP]MTDKYRL-NH2; C-terminus assumed) is 77.9%; for `CCCCCCCCCCCCCCCC(=O)N[C@@H](CCSC)C(=O)NCC(=O)N[C@@H](Cc1ccc(O)cc1)C(=O)N[C@@H](CCC(N)=O)C(=O)N[C@@H](CCCCN)C(=O)N[C@@H](CCCCN)C(=O)N[C@@H](CC(C)C)C(=O)N[C@@H](CCCNC(=N)N)C(=O)N[C@@H](CO)C(=O)N[C@@H](CCSC)C(=O)N[C@H](C(=O)N[C@@H](CC(=O)O)C(=O)N[C@@H](CCCCN)C(=O)N[C@@H](Cc1ccc(O)cc1)C(=O)N[C@@H](CCCNC(=N)N)C(=O)N[C@H](C(N)=O)C(C)C)[C@@H](C)O` [Compound 11] (Palmitoyl-MGYQKKLRSMTDKYRV-NH2; C-terminus assumed) it is 61.7%; for `CCCCCCCCCCCCCCCC(=O)N[C@@H](CCSC)C(=O)NCC(=O)N[C@@H](Cc1ccc(O)cc1)C(=O)N[C@@H](CCC(N)=O)C(=O)N[C@@H](CCCCN)C(=O)N[C@@H](CCCCN)C(=O)N[C@@H](CC(C)C)C(=O)N[C@@H](CCCNC(=N)N)C(=O)N[C@@H](CO)C(=O)N[C@@H](CCSC)C(=O)N[C@H](C(=O)N[C@@H](CC(=O)O)C(=O)N[C@@H](CCCCN)C(=O)N[C@@H](Cc1ccc(O)cc1)C(=O)N[C@@H](CCCNC(=N)N)C(=O)N[C@@H](CCCC)C(N)=O)[C@@H](C)O` [Compound 12] (Palmitoyl-MGYQKKLRSMTDKYR[Nle]-NH2; C-terminus assumed) it is 73.2%.

Take `CCCCCCCCCCCCCCCC(=O)N[C@@H](CCSC)C(=O)NCC(=O)N[C@@H](Cc1ccc(O)cc1)C(=O)N[C@@H](CCC(N)=O)C(=O)N[C@@H](CCCCN)C(=O)N[C@@H](CCCCN)C(=O)N[C@@H](CC(C)C)C(=O)N[C@@H](CCCNC(=N)N)C(=O)N[C@@H](CO)C(=O)N[C@@H](CCSC)C(=O)N[C@H](C(=O)N[C@@H](CC(=O)O)C(=O)N[C@@H](CCCCN)C(=O)N[C@@H](Cc1ccc(O)cc1)C(=O)N[C@@H](CCCCN)C(=O)N[C@@H](CC(C)C)C(N)=O)[C@@H](C)O` [Compound 13] (Palmitoyl-MGYQKKLRSMTDKYKL-NH2; C-terminus assumed): the Emax came to 61.4%.

For the compound `CCCCCCCCCCCCCCCC(=O)N[C@@H](CCSC)C(=O)NCC(=O)N[C@@H](Cc1ccc(O)cc1)C(=O)N[C@@H](CCC(N)=O)C(=O)N[C@@H](CCCCN)C(=O)N[C@@H](CCCCN)C(=O)N[C@@H](CC(C)C)C(=O)N[C@@H](CCCNC(=N)N)C(=O)N[C@@H](CO)C(=O)N[C@@H](CCSC)C(=O)N[C@H](C(=O)N[C@@H](CC(=O)O)C(=O)N[C@@H](CCCCN)C(=O)N[C@@H](Cc1ccc(O)cc1)C(=O)N[C@@H](CCCNC(N)=O)C(=O)N[C@@H](CC(C)C)C(N)=O)[C@@H](C)O` [Compound 14] (Palmitoyl-MGYQKKLRSMTDKY[Cit]L-NH2), the Emax is 3.61%. Turning to `CCCCCCCCCCCCCCCC(=O)N[C@@H](CCSC)C(=O)NCC(=O)N[C@@H](Cc1ccc(O)cc1)C(=O)N[C@@H](CCC(N)=O)C(=O)N[C@@H](CCCCN)C(=O)N[C@@H](CCCCN)C(=O)N[C@@H](CC(C)C)C(=O)N[C@@H](CCCNC(=N)N)C(=O)N[C@@H](CO)C(=O)N[C@@H](CCSC)C(=O)N[C@H](C(=O)N[C@@H](CC(=O)O)C(=O)N[C@@H](CCCCN)C(=O)N[C@@H](Cc1ccccc1)C(=O)N[C@@H](CCCNC(=N)N)C(=O)N[C@@H](CC(C)C)C(N)=O)[C@@H](C)O` [Compound 15] (Palmitoyl-MGYQKKLRSMTDKFRL-NH2; C-terminus assumed), the Emax came out at 81.5%. The figure for `CCCCCCCCCCCCCCCC(=O)N[C@@H](CCSC)C(=O)NCC(=O)N[C@@H](Cc1ccc(O)cc1)C(=O)N[C@@H](CCC(N)=O)C(=O)N[C@@H](CCCCN)C(=O)N[C@@H](CCCCN)C(=O)N[C@@H](CC(C)C)C(=O)N[C@@H](CCCNC(=N)N)C(=O)N[C@@H](CO)C(=O)N[C@@H](CCSC)C(=O)N[C@H](C(=O)N[C@@H](CC(=O)O)C(=O)N[C@@H](CCCCN)C(=O)N[C@@H](Cc1ccc2ccccc2c1)C(=O)N[C@@H](CCCNC(=N)N)C(=O)N[C@@H](CC(C)C)C(N)=O)[C@@H](C)O` [Compound 16] (Palmitoyl-MGYQKKLRSMTDK[2Nal]RL-NH2; C-terminus assumed) is 34.4%; for `CCCCCCCCCCCCCCCC(=O)N[C@@H](CCSC)C(=O)NCC(=O)N[C@@H](Cc1ccc(O)cc1)C(=O)N[C@@H](CCC(N)=O)C(=O)N[C@@H](CCCCN)C(=O)N[C@@H](CCCCN)C(=O)N[C@@H](CC(C)C)C(=O)N[C@@H](CCCNC(=N)N)C(=O)N[C@@H](CO)C(=O)N[C@@H](CCCC)C(=O)N[C@H](C(=O)N[C@@H](CC(=O)O)C(=O)N[C@@H](CCCCN)C(=O)N[C@@H](Cc1ccc(O)cc1)C(=O)N[C@@H](CCCNC(=N)N)C(=O)N[C@@H](CC(C)C)C(N)=O)[C@@H](C)O` [Compound 17] (Palmitoyl-MGYQKKLRS[Nle]TDKYRL-NH2; C-terminus assumed) it is 62.7%; for `CCCCCCCCCCCCCCCC(=O)N[C@@H](CCSC)C(=O)NCC(=O)N[C@@H](Cc1ccc(O)cc1)C(=O)N[C@@H](CCC(N)=O)C(=O)N[C@@H](CCCCN)C(=O)N[C@@H](CCCCN)C(=O)N[C@@H](CC(C)C)C(=O)N[C@@H](CCCNC(=N)N)C(=O)N[C@@H](CO)C(=O)N[C@@H](Cc1c[nH]cn1)C(=O)N[C@H](C(=O)N[C@@H](CC(=O)O)C(=O)N[C@@H](CCCCN)C(=O)N[C@@H](Cc1ccc(O)cc1)C(=O)N[C@@H](CCCNC(=N)N)C(=O)N[C@@H](CC(C)C)C(N)=O)[C@@H](C)O` [Compound 18] (Palmitoyl-MGYQKKLRSHTDKYRL-NH2; C-terminus assumed) it is 93.4%. Take `CCCCCCCCCCCCCCCC(=O)N[C@@H](CCSC)C(=O)NCC(=O)N[C@@H](Cc1ccc(O)cc1)C(=O)N[C@@H](CCC(N)=O)C(=O)N[C@@H](CCCCN)C(=O)N[C@@H](CCCCN)C(=O)N[C@@H](CC(C)C)C(=O)N[C@@H](CCCNC(=N)N)C(=O)N[C@@H](CO)C(=O)NCC(=O)N[C@H](C(=O)N[C@@H](CC(=O)O)C(=O)N[C@@H](CCCCN)C(=O)N[C@@H](Cc1ccc(O)cc1)C(=O)N[C@@H](CCCNC(=N)N)C(=O)N[C@@H](CC(C)C)C(N)=O)[C@@H](C)O` [Compound 19] (Palmitoyl-MGYQKKLRSGTDKYRL-NH2; C-terminus assumed): the Emax was found to be 101%.
